Converted amounts (≈) assume the structure as drawn.
Assays:
Format in all cases: functional
[1] = test system: Bacillus anthracis; assay: Antibacterial activity Bacillus anthracis Sterne 34F2 assessed as inhibition of bacterial growth by CLSI based microbroth dilution assay
[2] = test system: Staphylococcus aureus; assay: Antibacterial activity methicillin-sensitive Staphylococcus aureus ATCC 29213 assessed as inhibition of bacterial growth by CLSI based microbroth dilution assay
[3] = test system: Staphylococcus aureus; assay: Antibacterial activity methicillin-resistant Staphylococcus aureus USA300 assessed as inhibition of bacterial growth by CLSI based microbroth dilution assay
[4] = test system: Staphylococcus aureus; assay: Antibacterial activity Staphylococcus aureus NCIM 2079 assessed as inhibition of bacterial growth incubated for 24 hrs by serial dilution technique
[5] = test system: Bacillus subtilis; assay: Antibacterial activity Bacillus subtilis NCIM 2063 assessed as inhibition of bacterial growth incubated for 24 hrs by serial dilution technique
[6] = test system: Escherichia coli; assay: Antibacterial activity Escherichia coli NCIM 2918 assessed as inhibition of bacterial growth incubated for 24 hrs by serial dilution technique
[7] = test system: Escherichia coli; assay: Antibacterial activity Escherichia coli assessed as inhibition of bacterial growth after 18 hrs by broth dilution method
[8] = test system: Bacillus cereus; assay: Antibacterial activity Bacillus cereus assessed as inhibition of bacterial growth after 18 hrs by broth dilution method
[9] = test system: Staphylococcus aureus; assay: Antibacterial activity Staphylococcus aureus assessed as inhibition of bacterial growth after 18 hrs by broth dilution method
[10] = test system: Bacillus subtilis; assay: Antibacterial activity Bacillus subtilis assessed as inhibition of bacterial growth after 18 hrs by broth dilution method
[11] = test system: Pectobacterium carotovorum; assay: Antibacterial activity Pectobacterium carotovorum assessed as inhibition of bacterial growth after 18 hrs by broth dilution method
[12] = test system: Staphylococcus aureus; assay: Antibacterial activity methicillin-resistant Staphylococcus aureus MRSA ST-1745 assessed as inhibition of bacterial growth incubated for 16 to 24 hrs by broth microdilution assay; details: time 16-24 hrs
[13] = test system: Staphylococcus aureus; assay: Antibacterial activity methicillin-resistant Staphylococcus aureus MRSA ST-2071 assessed as inhibition of bacterial growth incubated for 16 to 24 hrs by broth microdilution assay; details: time 16-24 hrs
[14] = test system: Staphylococcus aureus; assay: Antibacterial activity methicillin-resistant Staphylococcus aureus MRSA ST-2438 assessed as inhibition of bacterial growth incubated for 16 to 24 hrs by broth microdilution assay; details: time 16-24 hrs
[15] = test system: Staphylococcus aureus; assay: Antibacterial activity methicillin-resistant Staphylococcus aureus MRSA B-10732 assessed as inhibition of bacterial growth incubated for 16 to 24 hrs by broth microdilution assay; details: time 16-24 hrs
[16] = test system: Staphylococcus aureus; assay: Antibacterial activity methicillin-resistant Staphylococcus aureus MRSA P-8029 assessed as inhibition of bacterial growth incubated for 16 to 24 hrs by broth microdilution assay; details: time 16-24 hrs
[17] = test system: Staphylococcus aureus; assay: Antibacterial activity methicillin-resistant Staphylococcus aureus MRSA ST-5457 assessed as inhibition of bacterial growth incubated for 16 to 24 hrs by broth microdilution assay; details: time 16-24 hrs
[18] = test system: Staphylococcus aureus; assay: Antibacterial activity methicillin-resistant Staphylococcus aureus MRSA ST-10342 assessed as inhibition of bacterial growth incubated for 16 to 24 hrs by broth microdilution assay; details: time 16-24 hrs
[19] = test system: Staphylococcus aureus; assay: Antibacterial activity methicillin-resistant Staphylococcus aureus MRSA B-10760 assessed as inhibition of bacterial growth incubated for 16 to 24 hrs by broth microdilution assay; details: time 16-24 hrs
[20] = test system: Staphylococcus aureus; assay: Antibacterial activity methicillin-resistant Staphylococcus aureus MRSA ST-3151 assessed as inhibition of bacterial growth incubated for 16 to 24 hrs by broth microdilution assay; details: time 16-24 hrs
[21] = test system: Staphylococcus aureus; assay: Antibacterial activity methicillin-resistant Staphylococcus aureus MRSA P-6642 assessed as inhibition of bacterial growth incubated for 16 to 24 hrs by broth microdilution assay; details: time 16-24 hrs
[22] = test system: Staphylococcus aureus; assay: Antibacterial activity Staphylococcus aureus assessed as inhibition of bacterial growth incubated for 12 to 18 hrs by NCCLS protocol based microdilution method; details: time 12-18 hrs
[23] = test system: Klebsiella pneumoniae; assay: Antibacterial activity Klebsiella pneumoniae assessed as inhibition of bacterial growth incubated for 12 to 18 hrs by NCCLS protocol based microdilution method; details: time 12-18 hrs
[24] = test system: Staphylococcus aureus; assay: Antibacterial activity methicillin-resistant Staphylococcus aureus OM481 assessed as inhibition of bacterial growth by liquid dilution method
[25] = test system: Staphylococcus aureus; assay: Antibacterial activity methicillin-resistant Staphylococcus aureus OM584 assessed as inhibition of bacterial growth by liquid dilution method
[26] = test system: Escherichia coli; assay: Antimicrobial activity against Escherichia coli MTCC 1573 assessed as bacterial growth inhibition incubated for 24 hrs by broth micro dilution method
[27] = test system: Staphylococcus aureus; assay: Antimicrobial activity against Staphylococcus aureus MTCC 1430 assessed as bacterial growth inhibition incubated for 24 hrs by broth micro dilution method
[28] = test system: Pseudomonas aeruginosa; assay: Antimicrobial activity against Pseudomonas aeruginosa MTCC 424 assessed as bacterial growth inhibition incubated for 24 hrs by broth micro dilution method
[29] = test system: Bacillus subtilis; assay: Antimicrobial activity against Bacillus subtilis MTCC 441 assessed as bacterial growth inhibition incubated for 24 hrs by broth micro dilution method
[30] = test system: Staphylococcus aureus; assay: Antibacterial activity methicillin-sensitive Staphylococcus aureus ATCC 25923 assessed as inhibition of bacterial growth after 24 hrs by microdilution broth method
[31] = test system: Staphylococcus aureus; assay: Antibacterial activity methicillin-resistant Staphylococcus aureus ATCC 33591 assessed as inhibition of bacterial growth after 24 hrs by microdilution broth method
[32] = test system: Bacillus subtilis; assay: Antibacterial activity Bacillus subtilis NBRC 3757 assessed as inhibition of bacterial growth after 48 hrs by two fold dilution method
[33] = test system: Staphylococcus epidermidis; assay: Antibacterial activity Staphylococcus epidermidis NBRC 12993 assessed as inhibition of bacterial growth after 48 hrs by two fold dilution method
[34] = test system: Micrococcus luteus; assay: Antibacterial activity Micrococcus luteus NBRC 333 assessed as inhibition of bacterial growth after 48 hrs by two fold dilution method

For `Cc1cc(C(=O)/C=C/c2ccc(N3CCCCC3)cc2)ccc1O`, the MIC [1] was 1.56 µg/mL (≈ 4.85 µM).

`CC1CCN(c2ccc(/C=C/C(=O)c3ccc(O)cc3O)cc2)CC1` was tested, and the MIC [2] was 6.25 µg/mL (≈ 18.5 µM), the MIC [3] was 3.12 µg/mL (≈ 9.26 µM) and the MIC [1] was 1.56 µg/mL (≈ 4.62 µM).

`O=C(/C=C/c1ccc(Br)cc1)c1ccc(Cl)cc1` showed an MIC [4] of 1000 µg/mL (≈ 3110 µM), an MIC [5] of 1000 µg/mL (≈ 3110 µM) and an MIC [6] of 1000 µg/mL (≈ 3110 µM).

In the case of `COc1cccc(/C=C/C(=O)c2ccc(O)cc2O)c1OC`, the MIC [7] is reported as 62.5 µg/mL (≈ 208 µM), the MIC [8] is reported as 62.5 µg/mL (≈ 208 µM) and the MIC [9] is reported as 62.5 µg/mL (≈ 208 µM). It also gave an MIC [10] of 125 µg/mL (≈ 416 µM) and an MIC [11] of 125 µg/mL (≈ 416 µM).

`COc1ccc(/C=C/C(=O)c2ccc(O)c(C)c2)cc1` showed an MIC [1] of 12.5 µg/mL (≈ 46.6 µM).

Work on `O=C(/C=C/c1ccc(O)c(O)c1)c1ccc(-c2ccccc2)cc1` yielded an MIC [12] of 25 µg/mL (≈ 79 µM), an MIC [13] of 25 µg/mL (≈ 79 µM) and an MIC [14] of 25 µg/mL (≈ 79 µM). The MIC [15] was 25 µg/mL (≈ 79 µM), the MIC [16] was 25 µg/mL (≈ 79 µM) and the MIC [17] was 25 µg/mL (≈ 79 µM). The MIC [18] was 25 µg/mL (≈ 79 µM), the MIC [19] was 25 µg/mL (≈ 79 µM) and the MIC [20] was 25 µg/mL (≈ 79 µM). The MIC [21] was 25 µg/mL (≈ 79 µM).

`Nc1ccccc1C(=O)CC(c1ccc(Cl)cc1)S(=O)(=O)c1ccccc1` (stereo not given) gave an MIC [22] of 1.95 µg/mL (≈ 4.88 µM) and an MIC [23] of 25.5 µg/mL (≈ 63.8 µM).

Compound `CCN(CC)c1ccc(/C=C/C(=O)c2ccc(O)cc2O)cc1` has an MIC [2] of 6.25 µg/mL (≈ 20.1 µM), an MIC [3] of 3.12 µg/mL (≈ 10 µM) and an MIC [1] of 3.12 µg/mL (≈ 10 µM).

`COc1cc(C(=O)/C=C/c2ccc(O)cc2)ccc1O` gave an MIC [12] of 12.5 µg/mL (≈ 46.2 µM), an MIC [13] of 12.5 µg/mL (≈ 46.2 µM) and an MIC [14] of 12.5 µg/mL (≈ 46.2 µM). It also gave an MIC [15] of 12.5 µg/mL (≈ 46.2 µM), an MIC [16] of 12.5 µg/mL (≈ 46.2 µM) and an MIC [17] of 12.5 µg/mL (≈ 46.2 µM). For the same compound, the MIC [18] was 12.5 µg/mL (≈ 46.2 µM), the MIC [19] was 12.5 µg/mL (≈ 46.2 µM) and the MIC [20] was 12.5 µg/mL (≈ 46.2 µM). For the same compound, the MIC [21] was 12.5 µg/mL (≈ 46.2 µM).

`CC(C)=CCc1c(O)ccc(C(=O)/C=C/c2ccc(O)c(C)c2)c1O` was tested, and the MIC [24] was 16 µg/mL (≈ 47.3 µM) and the MIC [25] was 8 µg/mL (≈ 23.6 µM).

In the case of `Cc1c(C(F)(F)F)cc(Cl)c(Cl)c1-n1nnc(C(=O)/C=C/c2cn(-c3ccccc3)nc2-c2ccc(Cl)cc2)c1C`, the MIC [26] is reported as 3.12 µg/mL (≈ 5.06 µM), the MIC [27] is reported as 12.5 µg/mL (≈ 20.3 µM) and the MIC [28] is reported as 3.12 µg/mL (≈ 5.06 µM). It also gave an MIC [29] of 6.25 µg/mL (≈ 10.1 µM).

`O=C(/C=C/c1ccc(Cl)cc1)c1ccc(O)cc1` was tested, and the MIC [12] was 25 µg/mL (≈ 96.6 µM), the MIC [13] was 25 µg/mL (≈ 96.6 µM) and the MIC [14] was 25 µg/mL (≈ 96.6 µM). The MIC [15] was 25 µg/mL (≈ 96.6 µM), the MIC [16] was 25 µg/mL (≈ 96.6 µM) and the MIC [17] was 25 µg/mL (≈ 96.6 µM). The MIC [18] was 25 µg/mL (≈ 96.6 µM), the MIC [19] was 25 µg/mL (≈ 96.6 µM) and the MIC [20] was 25 µg/mL (≈ 96.6 µM). The MIC [21] was 25 µg/mL (≈ 96.6 µM).

In the case of `O=C(/C=C/c1ccccc1)c1ccc(O)cc1O` [2',4'-DIHYDROXYCHALCONE], the MIC [30] is reported as 50 µg/mL (≈ 208 µM) and the MIC [31] is reported as 100 µg/mL (≈ 416 µM).

Work on `CC(C)=CCc1cc(C(=O)/C=C/c2ccc(O)cc2)c(O)cc1O` [BROUSSOCHALCONE B] yielded an MIC [32] of 8 µg/mL (≈ 24.7 µM), an MIC [33] of 8 µg/mL (≈ 24.7 µM) and an MIC [34] of 16 µg/mL (≈ 49.3 µM).

In the case of `CC(C)=CCc1c(O)ccc(C(=O)/C=C/c2ccc(O)cc2)c1O` [ISOBAVACHALCONE], the MIC [24] is reported as 8 µg/mL (≈ 24.7 µM), the MIC [25] is reported as 8 µg/mL (≈ 24.7 µM) and the MIC [32] is reported as 4 µg/mL (≈ 12.3 µM). The MIC [33] was 4 µg/mL (≈ 12.3 µM) and the MIC [34] was 4 µg/mL (≈ 12.3 µM).

`O=C(/C=C/c1ccc(O)cc1)c1ccc(O)cc1O` [ISOLIQUIRITIGENIN] was tested, and the MIC [7] was 31.3 µg/mL (≈ 122 µM), the MIC [8] was 15.5 µg/mL (≈ 60.5 µM) and the MIC [9] was 7.8 µg/mL (≈ 30.4 µM). For the same compound, the MIC [10] was 31.3 µg/mL (≈ 122 µM) and the MIC [11] was 15.5 µg/mL (≈ 60.5 µM).

Compound `COc1ccc(C(=O)/C=C/c2ccc(O)cc2)c(O)c1C/C=C(\C)CCC=C(C)C` [XANTHOANGELOL F] has an MIC [32] of 64 µg/mL (≈ 157 µM), an MIC [33] of 64 µg/mL (≈ 157 µM) and an MIC [34] of 64 µg/mL (≈ 157 µM).

With `CC(C)=CCC/C(C)=C/Cc1c(O)ccc(C(=O)/C=C/c2ccc(O)cc2)c1O` [XANTHOANGELOL] the MIC [32] was 4 µg/mL (≈ 10.2 µM), the MIC [33] was 4 µg/mL (≈ 10.2 µM) and the MIC [34] was 4 µg/mL (≈ 10.2 µM).

From ChEMBL document CHEMBL5233215, “Recent developments of chalcones as potential antibacterial agents in medicinal chemistry” (Eur J Med Chem, 2020)
